Where a name gives a salt, the structure may show the parent alone.
Legend:
Format in all cases: cell-based, human
[1] = tested on: SK-MEL-5; assay: Apoptosis induction (cleaved caspase-3 cytometry), SK-MEL-5; settings: 1 μM Example 2 plus 1 ng/ml TNF-α, 24 hour
Method: (§1) Melanoma cell lines were plated out in duplicate wells of 24-well plates at 0.5×10^6 cells/ml the day before treatment to allow them to adhere. After incubation of the cells with compound(s) with or without 1 ng/ml TNF-α (R&D Systems) for 24 h in a CO2 incubator at 37° C., cells were harvested by trypsinisation. The cell pellet from the 24-well plate was resuspended in 100 μl FACS buffer (PBS+1% fetal bovine serum). NucView488 reagent (from Biotium) was added to a final concentration of 2 μM. The plate was incubated in the dark for 30 minutes before measuring fluorescent stained cells in a Guava easyCyte HT cytometer (Millipore). Cleaved caspase-3 staining was recorded in the FL1 channel, with unstained and DMSO control wells being used to set the gated stained and unstained cell populations.

[2] = tested on: SK-MEL-2; assay: Apoptosis induction (cleaved caspase-3 cytometry), SK-MEL-2; settings: 1 μM Example 2 plus 1 ng/ml TNF-α, 24 hour
Method: as §1

[3] = tested on: A375; assay: Combination protocol for apoptosis, A375; settings: 24 h
Method: as §1
No increase in apoptosis was seen over this time scale with the combination agent shown in the first column of the table alone (with or without TNF-α)—data not shown.

[4] = tested on: WM-115; assay: Apoptosis induction (cleaved caspase-3 cytometry), WM-115; settings: 1 μM Example 2 plus 1 ng/ml TNF-α, 24 hour, dihydrochloride
Method: as §1

[5] = tested on: MALME-3M; assay: Apoptosis induction (cleaved caspase-3 cytometry), MALME-3M; settings: 1 μM Example 2 plus 1 ng/ml TNF-α, 24 hour
Method: as §1

[6] = tested on: SK-MEL-28; assay: Combination protocol for apoptosis, SK-MEL-28; settings: Example 2 0.1 μM + 1 ng/ml TNF-α, 24 h
Method: as §1, with “After” for “Melanoma cell lines were plated out in duplicate wells of 24-well plates at 0.5×10^6 cells/ml the day before treatment to allow them to adhere. After”

[7] = tested on: A375; assay: Apoptosis induction (cleaved caspase-3 cytometry), A375; settings: 1 μM Example 2 plus 1 ng/ml TNF-α, 24 hour
Method: as §1

[8] = tested on: WM-266-4; assay: Apoptosis induction (cleaved caspase-3 cytometry), WM-266-4; settings: 1 μM Example 2 plus 1 ng/ml TNF-α, 24 hour, dihydrochloride
Method: as §1

[9] = tested on: SK-MEL-28; assay: Apoptosis induction (cleaved caspase-3 cytometry), SK-MEL-28; settings: 1 μM Example 2 plus 1 ng/ml TNF-α, 24 hour
Method: as §1

[10] = tested on: RPMI-7951; assay: Apoptosis induction (cleaved caspase-3 cytometry), RPMI-7951; settings: 1 μM Example 2 plus 1 ng/ml TNF-α, 24 hour
Method: as §1

Compound: C[C@@H]1CN(CC(=O)N2CC(C)(C)c3nc(CO)c(Cc4ccc(F)cc4)cc32)[C@@H](CN2CCOC[C@H]2C)CN1 [Example 2, 1-{6-[(4-Fluorophenyl)methyl]-5-(hydroxymethyl)-3,3-dimethyl-1H,2H,3H-pyrrolo[3,2-b]pyridin-1-yl}-2-[(2R,5R)-5-methyl-2-{[(3R)-3-methylmorpholin-4-yl]methyl}piperazin-1-yl] ethan-1-one dihydrochloride]
- % Cleaved Caspase-3 [1]: 52.8%
- % Cleaved Caspase-3 [2]: 49.5%
- % Apoptosis Example 2 alone* ([3]; Example 2 0.1 μM + 1 ng/ml TNF-α): 14.4 (0.1 μM) %
- % Apoptosis Example 2 alone* ([3]; Example 2 1 μM + 1 ng/ml TNF-α): 31.2 (1 μM) %
- % Cleaved Caspase-3 [4]: 16.7%
- % Cleaved Caspase-3 [5]: 29.5%
- % Apoptosis Example 2 alone* [6]: 42.2 (0.1 μM) %
- % Cleaved Caspase-3 [7]: 26.5%
- % Cleaved Caspase-3 [8]: 13.2%
- % Cleaved Caspase-3 [9]: 63.2%
- % Cleaved Caspase-3 [10]: 44.0%
